Measurements: patent EP1247803A2, “Indolinone compounds suitable for modulation of protein kinases” (Sugen, Inc., priority 1996, dated 1998)

Experiments:
EGFR = biological target: T1, EGFR (Homo sapiens, UniProt P00533); experiment: EGFR ELISA assay (in vitro kinase activity, EGFR captured from A431 cell lysate); assay type: biochemical; design: concentration or dose not given beside the values
T1 construct: Add 7 ug A431 cell lysate per well (EGFR source); endogenous in cells; host or cells: A431
T1 sequence (P00533 25-1210): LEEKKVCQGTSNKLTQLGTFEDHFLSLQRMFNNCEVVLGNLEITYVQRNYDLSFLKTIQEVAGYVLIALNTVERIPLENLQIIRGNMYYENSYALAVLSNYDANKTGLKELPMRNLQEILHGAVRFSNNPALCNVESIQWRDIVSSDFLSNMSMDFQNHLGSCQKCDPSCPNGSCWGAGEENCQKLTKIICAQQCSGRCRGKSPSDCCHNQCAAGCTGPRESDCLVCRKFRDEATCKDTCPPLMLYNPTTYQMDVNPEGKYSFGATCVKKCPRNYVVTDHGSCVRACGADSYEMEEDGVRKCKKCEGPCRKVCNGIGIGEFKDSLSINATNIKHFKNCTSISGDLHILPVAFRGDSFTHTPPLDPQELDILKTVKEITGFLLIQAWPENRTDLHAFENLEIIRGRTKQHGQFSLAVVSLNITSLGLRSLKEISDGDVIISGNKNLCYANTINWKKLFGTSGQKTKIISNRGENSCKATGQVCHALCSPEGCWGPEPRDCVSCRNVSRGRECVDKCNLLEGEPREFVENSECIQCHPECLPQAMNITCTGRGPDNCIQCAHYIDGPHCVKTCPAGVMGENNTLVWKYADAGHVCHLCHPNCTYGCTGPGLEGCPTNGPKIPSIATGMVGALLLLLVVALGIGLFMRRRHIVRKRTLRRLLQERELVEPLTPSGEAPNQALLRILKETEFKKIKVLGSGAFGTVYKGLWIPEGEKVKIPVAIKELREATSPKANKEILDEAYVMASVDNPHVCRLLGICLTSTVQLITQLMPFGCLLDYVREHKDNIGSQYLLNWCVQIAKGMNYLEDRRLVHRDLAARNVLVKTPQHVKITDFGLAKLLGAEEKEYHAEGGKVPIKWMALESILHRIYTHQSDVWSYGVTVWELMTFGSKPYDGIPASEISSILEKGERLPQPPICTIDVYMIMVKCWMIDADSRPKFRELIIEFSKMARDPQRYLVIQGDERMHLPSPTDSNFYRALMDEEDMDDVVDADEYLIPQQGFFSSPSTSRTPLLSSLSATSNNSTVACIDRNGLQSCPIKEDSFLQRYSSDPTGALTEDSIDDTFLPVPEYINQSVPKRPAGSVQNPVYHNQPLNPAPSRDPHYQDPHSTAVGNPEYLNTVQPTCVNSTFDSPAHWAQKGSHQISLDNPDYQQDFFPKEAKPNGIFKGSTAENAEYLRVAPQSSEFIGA
How it was run: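 Receptor autophosphorylation was read by ELISA: anti-phosphotyrosine serum and an HRP-linked secondary with ABTS substrate, absorbance at 410 nm (reference 630 nm). The reaction ran 5 min with 3 µM ATP and 5 mM MnCl2 and was quenched by 20 mM EDTA. Compounds were first incubated 30 min with antibody-captured EGFR from A431 cell lysate.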

MET = MET biochemical kinase assay; design: species or system human; concentration or dose not given beside the values
How it was run: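 Plates coated with anti-rabbit Fc bind a rabbit anti-MET antibody that captures receptor from cell lysates; unbound protein is washed off before compound and ATP-containing kinase buffer go in.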

Row | Structure (SMILES) | Biochem EGFR %Inhibition (EGFR) [%] | Met Kinase % Inhibition (MET) [%]
1 | O=C1Nc2c(Br)cc(Br)cc2C1=Cc1ccc[nH]1 [10717/A09] | 37.7 | 9.4
2 | CCOC(=O)CCc1c(C(=O)OCC)[nH]c(C=C2C(=O)Nc3ccc(Br)c(C)c32)c1CC(=O)OCC [10718/C05] | 10.9 | 8.7
3 | CCOC(=O)c1cc(C=C2C(=O)Nc3ccc(Br)c(C)c32)oc1C [10718/C06] | 5.6 | 3.9
4 | COC(=O)c1[nH]c(C)c(C=C2C(=O)Nc3ccc(Br)c(C)c32)c1C(=O)OC [10718/C07] | -4.9 | 29.6
5 | Cc1c(Br)ccc2c1C(=Cc1ccc(Cl)c([N+](=O)[O-])c1)C(=O)N2 [10718/C08] | 13.1 | 22.7
6 | Cc1c(O)ccc(C=C2C(=O)Nc3ccc(Br)c(C)c32)c1O [10718/C09] | 26.5 | 38.2
7 | O=C1Nc2ccc(S(=O)(=O)N3CCOCC3)cc2C1=Cc1coc2c(Br)cc(Br)cc2c1=O [10730/F09] | 17.9 | 71.1
8 | COC1CC(C=C2C(=O)Nc3ccc(S(=O)(=O)N4CCOCC4)cc32)C(OC)O1 (centres unmarked) [10730/F10] | 6.2 | 42.1
9 | Cc1cc(C=C2C(=O)Nc3ccc(S(=O)(=O)N4CCOCC4)cc32)oc1C [10730/F11] | -24.1 | 53.6
10 | COc1ccc(C=C2C(=O)Nc3ccc(CCCl)cc32)c(OC)c1OC [10730/G02] | 20.8 | 41.1
11 | COc1cc(OC)c(OC)cc1C=C1C(=O)Nc2ccc(CCCl)cc21 [10730/G03] | -6.9 | 43.2
12 | COc1cc(C=C2C(=O)Nc3ccc(CCCl)cc32)cc(OC)c1OC [10730/G04] | -6.7 | 47.7
13 | CC(=O)n1cc(C=C2C(=O)Nc3ccc(CCCl)cc32)c2ccccc21 [10730/G05] | -18.2 | 35.8
14 | O=C1Nc2ccc(CCCl)cc2C1=Cc1ccc(-c2ccccc2Cl)o1 [10730/G07] | 6.4 | 26.2
15 | O=C1Nc2ccc(CCCl)cc2C1=Cc1cc2ccccc2nc1Cl [10730/G08] | 9.5 | 16.6
16 | COC1CC(C=C2C(=O)Nc3ccc(CCCl)cc32)C(OC)O1 (centres unmarked) [10730/G10] | 3.1 | 42.1
17 | Cc1cc(C=C2C(=O)Nc3ccc(CCCl)cc32)oc1C [10730/G11] | 26.2 | 46.1
18 | CCn1c2ccccc2c2cc(C=C3C(=O)Nc4c(Br)cc(Br)cc43)ccc21 [10731/A02] | 14.8 | 23.9
19 | Cc1cc2occ(C=C3C(=O)Nc4c(Br)cc(Br)cc43)c(=O)c2cc1C [10731/A03] | 10.8 | 54.8
20 | C=C(C)C1CC=C(C=C2C(=O)Nc3c(Br)cc(Br)cc32)CC1 (centres unmarked) [10731/A04] | 20.2 | 43.6
21 | CC(C)c1ccc2occ(C=C3C(=O)Nc4c(Br)cc(Br)cc43)c(=O)c2c1 [10731/A05] | 34.3 | 85.8
22 | Cc1ccc2occ(C=C3C(=O)Nc4c(Br)cc(Br)cc43)c(=O)c2c1 [10731/A06] | 30.1 | 53.0
23 | O=C1Nc2c(Br)cc(Br)cc2C1=Cc1coc2ccc([N+](=O)[O-])cc2c1=O [10731/A07] | 39.4 | 49.5

Row | Structure (SMILES) | Biochem EGFR %Inhibition (EGFR) [%] | Met Kinase % Inhibition (MET) [%]
24 | O=C1Nc2c(Br)cc(Br)cc2C1=Cc1c[nH]c(=O)[nH]c1=O [10731/A08] | 25.7 | 59.9
25 | COc1ccc2[nH]cc(C=C3C(=O)Nc4c(Br)cc(Br)cc43)c2c1 [10731/A09] | 21.9 | 46.7
26 | CN1C(=O)C(=C2C(=O)Nc3c(Br)cc(Br)cc32)c2ccccc21 [10731/A10] | 26.3 | 41.2
27 | CCn1c2ccccc2c2cc(C=C3C(=O)Nc4ccc(I)cc43)ccc21 [10731/B02] | 15.5 | 71.6
28 | Cc1cc2occ(C=C3C(=O)Nc4ccc(I)cc43)c(=O)c2cc1C [10731/B03] | 12.3 | 60.9
29 | C=C(C)C1CC=C(C=C2C(=O)Nc3ccc(I)cc32)CC1 (centres unmarked) [10731/B04] | 31.3 | 71.0
30 | CC(C)c1ccc2occ(C=C3C(=O)Nc4ccc(I)cc43)c(=O)c2c1 [10731/B05] | 35.9 | 86.0
31 | Cc1ccc2occ(C=C3C(=O)Nc4ccc(I)cc43)c(=O)c2c1 [10731/B06] | 37.5 | 56.2
32 | O=C1Nc2ccc(I)cc2C1=Cc1coc2ccc([N+](=O)[O-])cc2c1=O [10731/B07] | 29.1 | 41.6
33 | O=C1Nc2ccc(I)cc2C1=Cc1c[nH]c(=O)[nH]c1=O [10731/B08] | 37.2 | 57.4
34 | COc1ccc2[nH]cc(C=C3C(=O)Nc4ccc(I)cc43)c2c1 [10731/B09] | 15.0 | 29.6
35 | CN1C(=O)C(=C2C(=O)Nc3ccc(I)cc32)c2ccccc21 [10731/B10] | 50.5 | 72.9
36 | CCn1c2ccccc2c2cc(C=C3C(=O)Nc4ccc(Br)c(C)c43)ccc21 [10731/C02] | -6.9 | 11.1
37 | Cc1cc2occ(C=C3C(=O)Nc4ccc(Br)c(C)c43)c(=O)c2cc1C [10731/C03] | 9.1 | 38.7
38 | C=C(C)C1CC=C(C=C2C(=O)Nc3ccc(Br)c(C)c32)CC1 (centres unmarked) [10731/C04] | 31.0 | 32.5
39 | Cc1c(Br)ccc2c1C(=Cc1coc3ccc(C(C)C)cc3c1=O)C(=O)N2 [10731/C05] | 35.5 | 78.3
40 | Cc1ccc2occ(C=C3C(=O)Nc4ccc(Br)c(C)c43)c(=O)c2c1 [10731/C06] | 23.1 | 18.2
41 | Cc1c(Br)ccc2c1C(=Cc1coc3ccc([N+](=O)[O-])cc3c1=O)C(=O)N2 [10731/C07] | 35.5 | -11.6
42 | Cc1c(Br)ccc2c1C(=Cc1c[nH]c(=O)[nH]c1=O)C(=O)N2 [10731/C08] | 23.6 | 25.8
43 | COc1ccc2[nH]cc(C=C3C(=O)Nc4ccc(Br)c(C)c43)c2c1 [10731/C09] | 16.8 | 22.7
44 | Cc1c(Br)ccc2c1C(=C1C(=O)N(C)c3ccccc31)C(=O)N2 [10731/C10] | 20.9 | 23.3
45 | CCn1c2ccccc2c2cc(C=C3C(=O)Nc4ccc(S(=O)(=O)NC)cc43)ccc21 [10731/D02] | 4.9 | 8.7
46 | CNS(=O)(=O)c1ccc2c(c1)C(=Cc1coc3cc(C)c(C)cc3c1=O)C(=O)N2 [10731/D03] | 16.3 | 40.2
